Entries after “also recorded” stand apart in the source; their conditions may differ.

Test [1] addresses Bovine liver β-Galactosidase. As to the kind of experiment: Glycosidase inhibition, bovine liver β-galactosidase. In kind it is biochemical. The conditions noted are these: read-out: IC50 β-Galactosidase Bovine liver.
Test [2] has as its target F508del-CFTR (Homo sapiens, UniProt P13569, DEL508-508). As to the kind of experiment: CFTR function in CF-KM4 cells by single-cell fluorescence imaging. In kind it is cell-based.
For test [3], the target named is Rat intestinal isomaltase (Rattus norvegicus, UniProt P23739). As to the kind of experiment: Glycosidase inhibition, rat intestinal isomaltase. Format: biochemical.
Another test deals with Rice α-Glucosidase (Oryza sativa subsp. japonica, UniProt Q653V7). As to the kind of experiment: Glycosidase inhibition, rice α-glucosidase. Format: biochemical.
Another test deals with T1, Rat intestinal lactase (Rattus norvegicus, UniProt Q02401).
T1 sequence (Q02401 868-1928): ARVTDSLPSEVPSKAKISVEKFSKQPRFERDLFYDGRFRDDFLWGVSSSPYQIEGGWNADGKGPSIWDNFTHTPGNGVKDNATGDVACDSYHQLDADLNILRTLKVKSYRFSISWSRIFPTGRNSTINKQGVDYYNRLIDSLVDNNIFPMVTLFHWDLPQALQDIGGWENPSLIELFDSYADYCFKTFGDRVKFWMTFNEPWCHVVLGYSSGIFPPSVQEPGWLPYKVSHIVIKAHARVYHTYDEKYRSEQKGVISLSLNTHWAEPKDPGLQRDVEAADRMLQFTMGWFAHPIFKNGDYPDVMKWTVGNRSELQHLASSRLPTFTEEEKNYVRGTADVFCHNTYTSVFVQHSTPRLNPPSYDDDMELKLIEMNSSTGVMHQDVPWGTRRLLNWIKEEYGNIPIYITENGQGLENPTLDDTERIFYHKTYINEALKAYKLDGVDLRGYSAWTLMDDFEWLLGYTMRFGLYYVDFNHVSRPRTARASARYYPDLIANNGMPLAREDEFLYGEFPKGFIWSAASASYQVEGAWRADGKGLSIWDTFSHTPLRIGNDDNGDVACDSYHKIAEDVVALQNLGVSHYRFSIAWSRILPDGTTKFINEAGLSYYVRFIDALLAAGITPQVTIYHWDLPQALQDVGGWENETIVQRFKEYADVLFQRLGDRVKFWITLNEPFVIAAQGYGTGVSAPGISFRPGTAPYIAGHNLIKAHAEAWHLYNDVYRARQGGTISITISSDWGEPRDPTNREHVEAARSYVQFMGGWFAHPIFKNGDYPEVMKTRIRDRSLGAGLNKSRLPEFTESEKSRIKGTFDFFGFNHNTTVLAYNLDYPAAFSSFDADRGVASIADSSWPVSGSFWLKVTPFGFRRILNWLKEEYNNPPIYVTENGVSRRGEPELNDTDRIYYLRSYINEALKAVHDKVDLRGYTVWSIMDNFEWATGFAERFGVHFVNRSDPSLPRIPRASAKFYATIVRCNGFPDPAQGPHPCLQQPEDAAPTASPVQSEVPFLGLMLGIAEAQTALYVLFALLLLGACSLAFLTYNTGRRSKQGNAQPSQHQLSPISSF
The test is described as follows: Glycosidase inhibition, rat intestinal lactase. In kind it is biochemical.

For test [4], the target named is T2, Rabbit muscle Glycogen phosphorylase (Oryctolagus cuniculus, UniProt P00489).
T2 sequence (P00489 1-843): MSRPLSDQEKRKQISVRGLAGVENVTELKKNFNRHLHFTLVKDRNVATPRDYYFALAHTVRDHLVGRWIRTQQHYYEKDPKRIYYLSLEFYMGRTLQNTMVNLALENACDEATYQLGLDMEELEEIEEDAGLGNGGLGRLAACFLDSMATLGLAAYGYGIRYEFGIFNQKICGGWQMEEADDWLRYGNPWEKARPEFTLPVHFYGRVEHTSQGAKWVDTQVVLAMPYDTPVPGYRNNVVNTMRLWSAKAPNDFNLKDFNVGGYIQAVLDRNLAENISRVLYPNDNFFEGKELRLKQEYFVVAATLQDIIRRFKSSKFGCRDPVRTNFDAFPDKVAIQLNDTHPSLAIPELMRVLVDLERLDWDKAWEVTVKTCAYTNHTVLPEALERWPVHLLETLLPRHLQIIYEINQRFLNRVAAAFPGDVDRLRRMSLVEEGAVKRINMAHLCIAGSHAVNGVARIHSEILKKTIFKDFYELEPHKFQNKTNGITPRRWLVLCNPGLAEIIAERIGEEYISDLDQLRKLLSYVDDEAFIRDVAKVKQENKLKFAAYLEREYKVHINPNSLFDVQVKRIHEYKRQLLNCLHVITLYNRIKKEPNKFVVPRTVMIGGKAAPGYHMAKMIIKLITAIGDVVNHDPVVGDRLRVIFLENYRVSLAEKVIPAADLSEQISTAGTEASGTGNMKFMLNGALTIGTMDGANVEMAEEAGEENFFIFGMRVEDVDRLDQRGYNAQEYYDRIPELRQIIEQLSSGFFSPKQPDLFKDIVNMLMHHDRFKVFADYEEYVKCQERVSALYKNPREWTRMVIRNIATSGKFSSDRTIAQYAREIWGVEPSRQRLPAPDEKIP
As to the kind of experiment: Glycogen phosphorylase inhibition, rabbit muscle. In kind it is biochemical.

The target in test [5] is T3, Human lysosome α-Galactosidase (Homo sapiens, UniProt P06280).
T3 sequence (P06280 32-429): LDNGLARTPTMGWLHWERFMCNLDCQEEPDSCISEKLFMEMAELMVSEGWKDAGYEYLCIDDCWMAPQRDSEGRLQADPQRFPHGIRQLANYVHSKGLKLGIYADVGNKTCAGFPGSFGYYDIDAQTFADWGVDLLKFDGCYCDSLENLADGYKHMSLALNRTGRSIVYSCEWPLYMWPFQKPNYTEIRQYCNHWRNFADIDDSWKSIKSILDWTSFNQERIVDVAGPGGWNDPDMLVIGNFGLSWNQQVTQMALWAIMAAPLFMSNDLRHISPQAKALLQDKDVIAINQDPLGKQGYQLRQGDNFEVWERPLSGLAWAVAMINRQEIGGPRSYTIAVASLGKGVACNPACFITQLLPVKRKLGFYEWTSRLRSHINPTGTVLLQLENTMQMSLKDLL
As to the kind of experiment: Glycosidase inhibition, human lysosome α-galactosidase. Format: biochemical.

For another test, the system named is ER glucosidases. Particulars: cited from earlier work.
Test [6] relates to F508del-CFTR. Particulars: ref viii; cited from earlier work.

Rice α-Glucosidase, sequence (Q653V7 34-885): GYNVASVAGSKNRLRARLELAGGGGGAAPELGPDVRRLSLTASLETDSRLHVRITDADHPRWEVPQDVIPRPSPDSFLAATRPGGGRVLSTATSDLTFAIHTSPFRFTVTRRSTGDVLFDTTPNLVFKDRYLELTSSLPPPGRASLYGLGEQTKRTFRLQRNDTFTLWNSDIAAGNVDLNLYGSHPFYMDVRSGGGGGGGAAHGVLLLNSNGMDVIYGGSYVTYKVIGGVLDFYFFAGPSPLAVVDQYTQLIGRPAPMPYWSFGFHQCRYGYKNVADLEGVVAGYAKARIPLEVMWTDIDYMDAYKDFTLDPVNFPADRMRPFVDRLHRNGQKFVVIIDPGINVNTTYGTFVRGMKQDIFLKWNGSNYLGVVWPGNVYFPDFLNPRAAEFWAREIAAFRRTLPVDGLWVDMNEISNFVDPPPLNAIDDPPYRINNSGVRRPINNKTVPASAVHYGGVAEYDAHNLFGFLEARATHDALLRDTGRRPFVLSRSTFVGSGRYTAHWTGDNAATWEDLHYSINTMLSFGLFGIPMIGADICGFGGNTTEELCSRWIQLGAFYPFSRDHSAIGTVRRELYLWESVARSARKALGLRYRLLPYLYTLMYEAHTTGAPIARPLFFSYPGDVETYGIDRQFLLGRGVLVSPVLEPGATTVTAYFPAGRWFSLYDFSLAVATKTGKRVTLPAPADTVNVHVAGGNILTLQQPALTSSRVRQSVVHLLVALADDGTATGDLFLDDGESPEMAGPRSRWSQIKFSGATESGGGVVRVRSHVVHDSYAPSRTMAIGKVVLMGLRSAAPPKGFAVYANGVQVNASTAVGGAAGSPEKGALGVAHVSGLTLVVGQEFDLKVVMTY
Rat intestinal isomaltase, sequence (P23739 whole entry): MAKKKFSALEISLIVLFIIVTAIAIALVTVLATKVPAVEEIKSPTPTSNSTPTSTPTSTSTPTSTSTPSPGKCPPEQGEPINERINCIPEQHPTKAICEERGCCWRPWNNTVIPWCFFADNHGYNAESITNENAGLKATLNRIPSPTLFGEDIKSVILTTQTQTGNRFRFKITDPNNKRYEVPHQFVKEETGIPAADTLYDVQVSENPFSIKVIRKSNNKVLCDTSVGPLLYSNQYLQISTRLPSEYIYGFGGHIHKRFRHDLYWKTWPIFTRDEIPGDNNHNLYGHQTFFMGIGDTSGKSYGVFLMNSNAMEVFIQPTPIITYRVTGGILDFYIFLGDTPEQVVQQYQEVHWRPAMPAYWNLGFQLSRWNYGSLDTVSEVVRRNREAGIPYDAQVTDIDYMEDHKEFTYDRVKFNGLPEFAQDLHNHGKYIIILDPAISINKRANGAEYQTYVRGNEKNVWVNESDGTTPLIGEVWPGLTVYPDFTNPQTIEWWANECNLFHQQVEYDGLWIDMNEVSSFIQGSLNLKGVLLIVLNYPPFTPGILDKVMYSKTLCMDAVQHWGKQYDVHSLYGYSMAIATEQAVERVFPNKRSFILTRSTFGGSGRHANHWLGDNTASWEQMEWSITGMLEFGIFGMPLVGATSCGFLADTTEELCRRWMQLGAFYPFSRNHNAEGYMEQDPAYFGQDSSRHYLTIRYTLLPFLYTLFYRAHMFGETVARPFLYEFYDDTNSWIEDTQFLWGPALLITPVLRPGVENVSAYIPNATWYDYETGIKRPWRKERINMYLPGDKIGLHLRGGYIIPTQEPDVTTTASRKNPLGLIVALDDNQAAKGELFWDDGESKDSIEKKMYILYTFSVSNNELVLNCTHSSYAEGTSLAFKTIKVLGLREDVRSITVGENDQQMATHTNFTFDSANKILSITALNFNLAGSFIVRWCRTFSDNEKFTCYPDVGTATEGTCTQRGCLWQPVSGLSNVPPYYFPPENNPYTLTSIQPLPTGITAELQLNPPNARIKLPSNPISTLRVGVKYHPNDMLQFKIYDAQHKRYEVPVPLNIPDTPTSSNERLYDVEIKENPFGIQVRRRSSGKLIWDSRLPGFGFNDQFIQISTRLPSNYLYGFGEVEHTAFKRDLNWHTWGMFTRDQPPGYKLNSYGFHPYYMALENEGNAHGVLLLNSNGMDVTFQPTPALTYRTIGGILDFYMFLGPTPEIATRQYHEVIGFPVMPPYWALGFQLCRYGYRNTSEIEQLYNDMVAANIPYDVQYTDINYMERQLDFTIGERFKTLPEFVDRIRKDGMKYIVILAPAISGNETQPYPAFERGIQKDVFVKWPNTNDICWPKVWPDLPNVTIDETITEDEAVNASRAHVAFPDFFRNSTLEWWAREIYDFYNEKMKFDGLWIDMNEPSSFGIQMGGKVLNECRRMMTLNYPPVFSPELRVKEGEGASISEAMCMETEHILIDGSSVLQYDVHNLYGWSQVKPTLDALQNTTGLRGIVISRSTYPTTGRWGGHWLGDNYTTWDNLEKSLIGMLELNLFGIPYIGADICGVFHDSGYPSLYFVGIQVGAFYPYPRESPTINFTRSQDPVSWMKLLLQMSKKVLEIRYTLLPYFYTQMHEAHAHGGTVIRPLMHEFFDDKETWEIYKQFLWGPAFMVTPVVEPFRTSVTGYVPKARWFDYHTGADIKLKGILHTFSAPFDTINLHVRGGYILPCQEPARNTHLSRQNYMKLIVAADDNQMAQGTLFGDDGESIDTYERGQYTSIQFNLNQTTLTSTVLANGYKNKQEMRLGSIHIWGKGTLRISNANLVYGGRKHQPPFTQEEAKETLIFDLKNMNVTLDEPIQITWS

Consider `C[C@]1(CO)NC[C@@H](O)[C@@H]1O` [4-C-Me-DAB 1D, 1,4-dideoxy-1,4-imino-4-C-methyl-D-arabinitol], for which the IC50 (as a rule, the concentration at which inhibition is half-maximal) is more than 1 mM in [1]; 3.4 µM in test [3]; 7.1 µM against Rice α-Glucosidase; more than 1 mM against Rat intestinal lactase; more than 1 mM in test [4]; more than 1 mM in [5]. Besides, at F508del-CFTR [2], the “Corrector effect on CFTR function” value was “Neither of the 4-C-methyl pyrrolidines 1D and 1L had any corrector effect”. Besides, in test [4], the “Inhibition of glycogen phosphorylase (in words)” value (“Inhibition … (in words)” for short) was “no significant inhibition”.

Take `OC[C@]1(O)CNC[C@@H]1O` [isoLAB 2L]: the IC50 in test [1] is more than 1 mM; in test [3], more than 1000 µM; at Rice α-Glucosidase, more than 1000 µM; against Rat intestinal lactase, more than 1 mM; in test [4], more than 1 mM; in [5], more than 1 mM. In the test on ER glucosidases, the “Inhibition of ER glucosidases” value is “neither of which showed any inhibition”. In the test with F508del-CFTR [6], the “Rescue of the defective F508del-CFTR function” value is reported as “significant rescue; also recorded: partially rescues”. Besides, in test [4], the “Inhibition … (in words)” value is given as “no significant inhibition”.

For `OC[C@@]1(O)CNC[C@H]1O` [isoDAB 2D], the IC50 in test [1] was more than 1 mM; in test [3] it was 20 µM; against Rice α-Glucosidase, 41 µM; against Rat intestinal lactase, more than 1 mM; in [4], more than 1 mM; in [5] it was more than 1 mM. In addition, the “Inhibition … (in words)” value in [4] was “no significant inhibition”.

Consider `C[C@@]1(CO)NC[C@H](O)[C@H]1O` [4-C-Me-LAB 1L], for which the IC50 in test [1] was more than 1 mM; in [3], 5.1 µM; against Rice α-Glucosidase, 5.8 µM; against Rat intestinal lactase it was more than 1 mM; in test [4], more than 1 mM; in test [5] it was more than 1 mM. Moreover, the “Corrector effect on CFTR function” value on F508del-CFTR [2] is “Neither of the 4-C-methyl pyrrolidines 1D and 1L had any corrector effect”. Also, the “Inhibition … (in words)” value in test [4] is on record as “no significant inhibition”.

The values are drawn from publication PMC3000536 (Tetrahedron letters, 2011).
